Data taken from patent publication US20190031717A1, “MULTI-FUNCTIONAL FUSION POLYPEPTIDE, PREPARATION METHOD THEREOF, AND APPLICATION OF SAME” (NANJING ANJI BIOLOGICAL TECHNOLOGY CO., LTD, priority 2016, published 2019).

Columns and labels:
[1] = test system: Pneumonia caused by lung infection; assay: Mouse pneumonia model, pneumonia caused by lung infection; assay type: in vivo, BALB/C mice; design: concentration or dose not given beside the values; settings: mean ± SD
Protocol: (§1) The mouse pneumonia model was successfully established by the nose-drop method. To build the mouse pneumonia model, BALB/C mice with a body mass of 16-22 g were selected and anesthetized pneumonia chain was prepared after anesthesia with ether on day 0, day 1, and day 2. Staphylococcal fluid, adenovirus concentrate, Mycoplasma pneumoniae, Chlamydia pneumoniae, protozoa, and pneumonia fungi were slowly dripped into the nasal cavity of the mice, so that they enter the tracheobronchial. During the operation process, care was exercised to prevent bacterial fluid from flowing into the esophagus, which leads to inactivation the bacterial fluid. After successful model establishment, the polypeptides of the present invention were administered, and the results were shown in Table 5. […] The results were expressed in average value±standard deviation.

Mycoplasma pneumoniae = assay: Mouse pneumonia model, mycoplasma; assay type: in vivo, BALB/C mice; design: concentration or dose not given beside the values; settings: mean ± SD
Protocol: as §1

Chlamydia pneumoniae = assay: Mouse pneumonia model, chlamydia; assay type: in vivo, BALB/C mice; design: concentration or dose not given beside the values; settings: mean ± SD
Protocol: as §1

[2] = test system: Non-small cell lung cancer; assay: MTT assay, lung cancer tumor cells; assay type: cell-based, human; design: concentration or dose not given beside the values; settings: 48 h, mean ± SD
Protocol: (§2) The inhibition of the growth of human lung cancer tumor cells by the polypeptide of the present invention was examined by MTT assay. The lung cancer tumor cells were cultured in a 37° C., 5% (volume fraction) CO2 incubator to a density of 90% or more, and collected by trypsinization. The cells were resuspended in the culture medium and counted under a microscope to adjust the cell concentration to 2.0×10^4 cells/mL, the cell suspension was inoculated into a 96-well plate at 100 μL per well, and cultured overnight at 37° C. in a 5% (volume fraction) CO2 incubator. After the cells were completely adhered, the polypeptide of the present invention was added as a drug-administered group, and a culture solution containing no drug was used as a blank control group, and the culture solution was diluted to each predetermined concentration. Each dilution was separately added to a 96-well plate at 100 μL per well and incubated for 48 h at 37° C. in a 5% (volume fraction) CO2 incubator. 20 μL of 5 mg/mL MTT was added to each well of a 96-well plate, and incubation was continued for 4 hours. The medium was aspirated, and the cells were dissolved in 100 μL of DMSO per well. The absorbance was measured by a microplate reader at a detection wavelength of 570 nm and a reference wavelength of 630 nm, and the growth inhibition rate was calculated as follows: tumor growth inhibition rate (%)=(1−administered group absorbance value/unadministered group absorbance value)×100%, and the experiment was repeated 3 times independently. The results obtained by the test were expressed as mean±standard deviation. The results in Table 6 indicate that the polypeptides of the present invention have a good inhibitory effect on proliferation of a variety of human lung cancer tumors (FIG. 5).

Squamous cell carcinoma = assay: MTT assay, lung cancer tumor cells; assay type: cell-based, human; design: concentration or dose not given beside the values; settings: 48 h, mean ± SD
Protocol: as §2

Adenosquamous carcinoma = assay: MTT assay, lung cancer tumor cells; assay type: cell-based, human; design: concentration or dose not given beside the values; settings: 48 h, mean ± SD
Protocol: as §2

Adenocarcinoma = assay: MTT assay, lung cancer tumor cells; assay type: cell-based, human; design: concentration or dose not given beside the values; settings: 48 h, mean ± SD
Protocol: as §2

adenovirus concentrate = assay: Mouse pneumonia model, viral; assay type: in vivo, BALB/C mice; settings: mean ± SD
Protocol: as §1

pneumonia fungi = assay: Mouse pneumonia model, fungal; assay type: in vivo, BALB/C mice; design: concentration or dose not given beside the values; settings: mean ± SD
Protocol: as §1

[3] = test system: A549 cells induced by TGF-β1 (lung fibrosis model); assay: Hydroxyproline content in TGF-β1-induced A549 pulmonary fibrosis cell model; assay type: cell-based, human; settings: for Hydroxyproline Content Inhibition Rate in the Pulmonary Fibrosis Model: 48 hours
Protocol: Human non-small cell lung cancer cells A549 were cultured in DMEM medium containing 10% (volume fraction) fetal bovine serum, cultured in a carbon dioxide incubator with a volume fraction of 5% at 37° C., and changed once every other day, depending on cell density. A549 cells in logarithmic growth phase were digested with 0.25% trypsin to prepare a cell suspension, adjusted to a cell concentration of 1×10^9 cells/L, and seeded at a density of 4×10^5 cells/cm2 in a cell culture dish of 90 cm^2. The cells were randomly divided into two groups: (1) control group: cultured in DMEM containing 10% (volume fraction) fetal bovine serum; (2) model group: containing 10% (volume fraction) fetal bovine serum, transforming growth factor (TGF-β1, final concentration 5 μg/L) was cultured in DMEM. The cells were cultured at 37° C. in a volumetric 5% carbon dioxide incubator, and changed every other day, depending on the cell density. Cell morphology was observed daily using an inverted microscope to determine when the model was established. When A549 cells are changed from the cobblestone shape of the original epithelial cells to the long spindle shape of the interstitial cells, the modeling is successfully established.
After 48 hours of addition of the polypeptides, the cells of the control group, the model group, and the administration group were collected for subsequent measurement of molecular markers related to pulmonary fibrosis.
Hydroxyproline accounts for 13.4% of collagen, so the content of hydroxyproline can reflect the accumulation of collagen during pulmonary fibrosis, which in turn reflects the degree of pulmonary fibrosis.
Prepare citric acid buffer: 120 g of sodium citrate, 12 mL of glacial acetic acid, 46 g of citric acid, 34 g of sodium hydroxide, dissolved in distilled water, adjust the pH to 6.0, and then dilute to 1000 mL.
Prepare 0.05 mol/L chloramine T solution: weigh 7.05 g of chloramine T, dissolve in 100 mL of distilled water, then add 150 mL of ethylene glycol, and add 250 mL of citric acid buffer to mix well.
Prepare p-dimethylaminobenzaldehyde: Reagent A: Take 20 mL of absolute ethanol, slowly add 2.74 mL of concentrated sulfuric acid; Reagent B: Take 12.0 g of p-dimethylaminobenzaldehyde, slowly add 40 mL of absolute ethanol. Heat in a water bath to completely dissolve and cool to room temperature, then slowly add the A solution to B and mix well.
Prepare a […] perchloric acid solution: take 27 mL of perchloric acid and dilute to 100 mL with distilled water.
The specific steps are as follows: collect the cells in a 1 mL water solution and lyse the cells using a homogenizer; adjust the pH to neutral, dilute to 3 mL, add activated carbon to centrifuge; take 1 mL supernatant, add 1 mL solution 1 (1 mL citrate buffer and 1 mL 0.05 mol/L chloramine T solution), stand for 10 minutes, add 1 mL of perchloric acid, stand for 5 minutes, add 1 mL of p-dimethylaminobenzaldehyde reagent, keep in 60° C. water bath for 15 minutes; centrifuge at 3500 rpm/min for 10 minutes, take the supernatant to measure the absorbance value at a wavelength of 550 nm.
The test was repeated 3 times independently, and the inhibition rate was calculated as follows: inhibition rate (%)=(1−experimental group absorbance/model group absorbance)×100%.

protozoa = assay: Mouse pneumonia model, protozoal; assay type: in vivo, BALB/C mice; design: concentration or dose not given beside the values; settings: mean ± SD
Protocol: as §1

## Arg-Gly-Asp-Gly-Gly-Gly-Gly-Pro-(D-Pyr)-(D-Cys)-Bip-Arg-Gly-Glu-Gly-Gly-Gly-Gly-Ile-Val-Arg-Arg-Ala-Asp-Arg-Ala-Ala-Val-Pro [Polypeptide III]
[1]
  Inhibitory Effects on Various Pulmonary Infections: 55.08 ± 15.52%
Mycoplasma pneumoniae
  Inhibitory Effects on Various Pulmonary Infections: 42.44 ± 11.96%
Chlamydia pneumoniae
  Inhibitory Effects on Various Pulmonary Infections: 49.88 ± 14.05%
[2]
  tumor growth inhibition rate, MTT Assay: 91.58 ± 17.95%
Squamous cell carcinoma
  tumor growth inhibition rate, MTT Assay: 70.61 ± 12.86%
Adenosquamous carcinoma
  tumor growth inhibition rate, MTT Assay: 63.67 ± 11.60%
Adenocarcinoma
  tumor growth inhibition rate, MTT Assay: 93.25 ± 16.99%
Adenovirus concentrate
  Inhibitory Effects on Various Pulmonary Infections: 62.17 ± 17.51%
Pneumonia fungi
  Inhibitory Effects on Various Pulmonary Infections: 62.35 ± 17.56%
[3]
  effect on content of hydroxyproline in lung fibrosis model cells (FIG. 1-3), in words: can inhibit the content of hydroxyproline in lung fibrosis model cells
[3]; 4 uM
  Hydroxyproline Content Inhibition Rate in the Pulmonary Fibrosis Model: 30.66%
[3]; 8 uM
  Hydroxyproline Content Inhibition Rate in the Pulmonary Fibrosis Model: 56.21%
protozoa
  Inhibitory Effects on Various Pulmonary Infections: 65.68 ± 18.50%

## Ile-Val-Arg-Arg-Ala-Asp-Arg-Ala-Ala-Val-Pro-Gly-Gly-Gly-Gly-Pro-(D-Pyr)-(D-Cys)-Bip-Arg-Gly-Glu-Gly-Gly-Gly-Gly-Arg-Gly-Asp [Polypeptide II]
[1]
  Inhibitory Effects on Various Pulmonary Infections: 50.81 ± 14.48%
Mycoplasma pneumoniae
  Inhibitory Effects on Various Pulmonary Infections: 39.16 ± 11.16%
Chlamydia pneumoniae
  Inhibitory Effects on Various Pulmonary Infections: 46.02 ± 13.12%
[2]
  tumor growth inhibition rate, MTT Assay: 90.88 ± 16.75%
Squamous cell carcinoma
  tumor growth inhibition rate, MTT Assay: 65.14 ± 12.00%
Adenosquamous carcinoma
  tumor growth inhibition rate, MTT Assay: 58.73 ± 10.82%
Adenocarcinoma
  tumor growth inhibition rate, MTT Assay: 86.03 ± 15.85%
Adenovirus concentrate
  Inhibitory Effects on Various Pulmonary Infections: 57.35 ± 16.34%
Pneumonia fungi
  Inhibitory Effects on Various Pulmonary Infections: 57.52 ± 16.39%
[3]
  effect on content of hydroxyproline in lung fibrosis model cells (FIG. 1-3), in words: can inhibit the content of hydroxyproline in lung fibrosis model cells
[3]; 4 uM
  Hydroxyproline Content Inhibition Rate in the Pulmonary Fibrosis Model: 31.28%
[3]; 8 uM
  Hydroxyproline Content Inhibition Rate in the Pulmonary Fibrosis Model: 57.35%
protozoa
  Inhibitory Effects on Various Pulmonary Infections: 60.59 ± 17.27%

## Arg-Gly-Asp-Gly-Gly-Gly-Gly-Ile-Val-Arg-Arg-Ala-Asp-Arg-Ala-Ala-Val-Pro-Gly-Gly-Gly-Gly-Pro-(D-Pyr)-(D-Cys)-Bip-Arg-Gly-Glu [Polypeptide IV]
[1]
  Inhibitory Effects on Various Pulmonary Infections: 52.37 ± 21.81%
Mycoplasma pneumoniae
  Inhibitory Effects on Various Pulmonary Infections: 40.35 ± 16.87%
Chlamydia pneumoniae
  Inhibitory Effects on Various Pulmonary Infections: 47.43 ± 17.72%
[2]
  tumor growth inhibition rate, MTT Assay: 93.66 ± 23.44%
Squamous cell carcinoma
  tumor growth inhibition rate, MTT Assay: 67.13 ± 12.69%
Adenosquamous carcinoma
  tumor growth inhibition rate, MTT Assay: 60.53 ± 16.36%
Adenocarcinoma
  tumor growth inhibition rate, MTT Assay: 88.65 ± 17.86%
Adenovirus concentrate
  Inhibitory Effects on Various Pulmonary Infections: 59.10 ± 18.42%
Pneumonia fungi
  Inhibitory Effects on Various Pulmonary Infections: 59.28 ± 19.64%
[3]
  effect on content of hydroxyproline in lung fibrosis model cells (FIG. 1-3), in words: can inhibit the content of hydroxyproline in lung fibrosis model cells
[3]; 4 uM
  Hydroxyproline Content Inhibition Rate in the Pulmonary Fibrosis Model: 33.09%
[3]; 8 uM
  Hydroxyproline Content Inhibition Rate in the Pulmonary Fibrosis Model: 47.28%
protozoa
  Inhibitory Effects on Various Pulmonary Infections: 62.44 ± 24.16%

## Pro-(D-Pyr)-(D-Cys)-Bip-Arg-Gly-Glu-Gly-Gly-Gly-Gly-Ile-Val-Arg-Arg-Ala-Asp-Arg-Ala-Ala-Val-Pro-Gly-Gly-Gly-Gly-Arg-Gly-Asp [Polypeptide I]
[1]
  Inhibitory Effects on Various Pulmonary Infections: 38.79 ± 16.78%
Mycoplasma pneumoniae
  Inhibitory Effects on Various Pulmonary Infections: 29.89 ± 12.97%
Chlamydia pneumoniae
  Inhibitory Effects on Various Pulmonary Infections: 35.13 ± 13.63%
[2]
  tumor growth inhibition rate, MTT Assay: 69.38 ± 18.03%
Squamous cell carcinoma
  tumor growth inhibition rate, MTT Assay: 49.73 ± 9.76%
Adenosquamous carcinoma
  tumor growth inhibition rate, MTT Assay: 44.84 ± 12.58%
Adenocarcinoma
  tumor growth inhibition rate, MTT Assay: 65.67 ± 13.74%
Adenovirus concentrate
  Inhibitory Effects on Various Pulmonary Infections: 43.78 ± 14.17%
Pneumonia fungi
  Inhibitory Effects on Various Pulmonary Infections: 43.91 ± 15.11%
[3]
  effect on content of hydroxyproline in lung fibrosis model cells (FIG. 1-3), in words: can inhibit the content of hydroxyproline in lung fibrosis model cells
[3]; 4 uM
  Hydroxyproline Content Inhibition Rate in the Pulmonary Fibrosis Model: 36.50%
[3]; 8 uM
  Hydroxyproline Content Inhibition Rate in the Pulmonary Fibrosis Model: 52.14%
protozoa
  Inhibitory Effects on Various Pulmonary Infections: 46.25 ± 18.59%

## Pro-(D-Pyr)-(D-Cys)-Bip-Arg-Gly-Glu-Gly-Gly-Gly-Gly-Arg-Gly-Asp-Gly-Gly-Gly-Gly-Ile-Val-Arg-Arg-Ala-Asp-Arg-Ala-Ala-Val-Pro [Polypeptide VI]
[1]
  Inhibitory Effects on Various Pulmonary Infections: 46.55 ± 16.44%
Mycoplasma pneumoniae
  Inhibitory Effects on Various Pulmonary Infections: 35.87 ± 12.71%
Chlamydia pneumoniae
  Inhibitory Effects on Various Pulmonary Infections: 42.16 ± 13.36%
[2]
  tumor growth inhibition rate, MTT Assay: 83.25 ± 17.67%
Squamous cell carcinoma
  tumor growth inhibition rate, MTT Assay: 59.67 ± 9.56%
Adenosquamous carcinoma
  tumor growth inhibition rate, MTT Assay: 53.80 ± 12.33%
Adenocarcinoma
  tumor growth inhibition rate, MTT Assay: 78.80 ± 13.47%
Adenovirus concentrate
  Inhibitory Effects on Various Pulmonary Infections: 52.54 ± 13.88%
Pneumonia fungi
  Inhibitory Effects on Various Pulmonary Infections: 52.69 ± 14.80%
[3]
  effect on content of hydroxyproline in lung fibrosis model cells (FIG. 1-3), in words: can inhibit the content of hydroxyproline in lung fibrosis model cells
[3]; 4 uM
  Hydroxyproline Content Inhibition Rate in the Pulmonary Fibrosis Model: 29.55%
[3]; 8 uM
  Hydroxyproline Content Inhibition Rate in the Pulmonary Fibrosis Model: 54.17%
protozoa
  Inhibitory Effects on Various Pulmonary Infections: 55.50 ± 18.21%
